Assay results taken from patent publication US20240398784A1, “C-LINKED ISOQUINOLINE AMIDES AS LRRK2 INHIBITORS, PHARMACEUTICAL COMPOSITIONS, AND USES THEREOF” (Merck Sharp & Dohme LLC, priority 2021, published 2024).

Each compound was assayed against LRRK2 G2019S (Homo sapiens, UniProt Q5S007, G2019S) (assay: LRRK2 G2019S Km ATP LanthaScreen assay). Conditions: not given.
Assay type: biochemical

Chain of LRRK2 G2019S (Q5S007 whole entry G2019S): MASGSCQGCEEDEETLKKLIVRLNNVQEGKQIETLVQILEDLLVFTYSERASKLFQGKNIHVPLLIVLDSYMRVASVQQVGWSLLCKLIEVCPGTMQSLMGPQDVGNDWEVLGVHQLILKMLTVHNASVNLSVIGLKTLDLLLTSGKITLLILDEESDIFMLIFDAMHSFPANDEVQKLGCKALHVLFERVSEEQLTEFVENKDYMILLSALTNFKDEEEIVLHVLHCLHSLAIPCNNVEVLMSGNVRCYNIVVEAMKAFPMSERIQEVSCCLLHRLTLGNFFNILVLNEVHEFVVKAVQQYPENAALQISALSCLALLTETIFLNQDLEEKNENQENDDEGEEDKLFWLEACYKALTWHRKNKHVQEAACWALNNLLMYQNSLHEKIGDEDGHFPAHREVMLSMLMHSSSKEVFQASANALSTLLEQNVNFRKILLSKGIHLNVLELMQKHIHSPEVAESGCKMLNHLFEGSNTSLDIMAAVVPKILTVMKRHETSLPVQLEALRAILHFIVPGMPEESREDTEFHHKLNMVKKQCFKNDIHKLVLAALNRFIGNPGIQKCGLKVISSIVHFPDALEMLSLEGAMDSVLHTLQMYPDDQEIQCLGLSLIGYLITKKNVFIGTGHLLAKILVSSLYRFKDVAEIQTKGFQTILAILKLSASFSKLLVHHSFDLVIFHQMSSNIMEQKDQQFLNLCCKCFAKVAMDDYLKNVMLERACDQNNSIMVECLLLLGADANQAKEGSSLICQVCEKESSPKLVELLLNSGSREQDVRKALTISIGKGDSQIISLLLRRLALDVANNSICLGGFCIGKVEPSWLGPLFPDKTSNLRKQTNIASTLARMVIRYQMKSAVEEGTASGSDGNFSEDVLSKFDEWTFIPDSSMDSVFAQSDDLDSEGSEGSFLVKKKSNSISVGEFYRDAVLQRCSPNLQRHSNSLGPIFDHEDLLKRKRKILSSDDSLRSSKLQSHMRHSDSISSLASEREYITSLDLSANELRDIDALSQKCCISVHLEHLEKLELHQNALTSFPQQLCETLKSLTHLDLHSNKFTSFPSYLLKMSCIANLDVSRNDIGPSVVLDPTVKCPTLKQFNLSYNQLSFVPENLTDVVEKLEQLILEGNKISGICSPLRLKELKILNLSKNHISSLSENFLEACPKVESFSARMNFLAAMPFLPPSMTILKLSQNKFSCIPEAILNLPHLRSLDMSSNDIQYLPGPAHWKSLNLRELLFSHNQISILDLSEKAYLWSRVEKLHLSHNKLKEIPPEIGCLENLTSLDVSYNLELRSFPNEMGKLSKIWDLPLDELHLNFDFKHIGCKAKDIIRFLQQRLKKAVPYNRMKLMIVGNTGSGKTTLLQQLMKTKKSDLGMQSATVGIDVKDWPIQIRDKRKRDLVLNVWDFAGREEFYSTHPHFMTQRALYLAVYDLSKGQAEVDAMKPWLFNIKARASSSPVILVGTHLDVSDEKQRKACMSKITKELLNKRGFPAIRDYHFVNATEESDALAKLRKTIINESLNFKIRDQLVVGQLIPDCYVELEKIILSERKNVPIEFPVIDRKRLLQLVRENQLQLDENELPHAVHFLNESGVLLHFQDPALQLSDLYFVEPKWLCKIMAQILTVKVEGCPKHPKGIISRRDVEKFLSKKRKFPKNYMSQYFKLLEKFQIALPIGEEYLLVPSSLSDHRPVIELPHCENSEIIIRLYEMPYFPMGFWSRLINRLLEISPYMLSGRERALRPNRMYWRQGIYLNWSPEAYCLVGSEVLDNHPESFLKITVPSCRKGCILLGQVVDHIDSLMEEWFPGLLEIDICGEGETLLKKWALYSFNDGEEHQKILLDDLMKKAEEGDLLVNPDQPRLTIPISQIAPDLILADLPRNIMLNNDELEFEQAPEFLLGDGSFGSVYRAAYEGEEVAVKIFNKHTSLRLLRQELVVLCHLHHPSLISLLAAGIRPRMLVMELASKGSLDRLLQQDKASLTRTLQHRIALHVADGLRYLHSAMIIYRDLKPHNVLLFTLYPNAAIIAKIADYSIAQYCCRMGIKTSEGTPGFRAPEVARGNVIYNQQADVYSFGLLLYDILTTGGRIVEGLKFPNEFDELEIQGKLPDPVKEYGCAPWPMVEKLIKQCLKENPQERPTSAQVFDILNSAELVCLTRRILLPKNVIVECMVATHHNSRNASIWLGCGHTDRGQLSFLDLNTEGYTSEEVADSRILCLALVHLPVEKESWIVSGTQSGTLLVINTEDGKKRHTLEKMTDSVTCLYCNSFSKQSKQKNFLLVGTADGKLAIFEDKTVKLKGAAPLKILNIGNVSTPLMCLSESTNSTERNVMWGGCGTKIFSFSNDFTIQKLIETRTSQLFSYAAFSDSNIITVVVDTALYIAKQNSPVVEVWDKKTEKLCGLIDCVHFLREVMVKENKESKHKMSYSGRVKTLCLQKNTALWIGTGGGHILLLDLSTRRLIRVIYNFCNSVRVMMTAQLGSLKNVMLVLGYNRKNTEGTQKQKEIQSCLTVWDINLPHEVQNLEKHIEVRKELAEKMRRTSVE

Structure (SMILES)	LRRK2 pIC50
CO[C@H]1C[C@H](C(=O)Nc2cc3cc(C4(C#N)CC45CC5)ccc3cn2)C1.O=C(O)C(F)(F)F (stereo partly drawn) [Ex-1.1]	8.96

Same assay, conditions: read-out: LRRK2 pIC50 (converted)

Structure (SMILES)	IC50
CC1(N2CCC(c3cc4cc(NC(=O)C5C6CCCOC65)ncc4cc3Cl)CC2)COCC1O (single isomer, unassigned) [Ex-4.13, N-(7-chloro-6-(1-(4-hydroxy-3-methyltetrahydrofuran-3-yl)piperidin-4-yl)isoquinolin-3-yl)-2-oxabicyclo[4.1.0]heptane-7-carboxamide]	0.182 nM
Cn1ncc(C2CC2C(=O)Nc2cc3cc(C4(C#N)CC45CC5)ccc3cn2)c1Cl (stereo not drawn) [Ex-2.79]	34.7 nM
CN(C)C1CCC2C(C(=O)Nc3cc4cc(C5CCN(C6(C)COCC6O)CC5)c(Cl)cc4cn3)C21 (single isomer, unassigned) [Ex-4.27, N-(7-chloro-6-(1-(4-hydroxy-3-methyltetrahydrofuran-3-yl)piperidin-4-yl)isoquinolin-3-yl)-2-(dimethylamino)bicyclo[3.1.0]hexane-6-carboxamide]	2.57 nM
COCC(C)c1cc2cc(NC(=O)C3CC34CCOCC4)ncc2cc1Cl (single isomer, unassigned) [Ex-9.11, N-(7-chloro-6-(1-methoxypropan-2-yl)isoquinolin-3-yl)-6-oxaspiro[2.5]octane-1-carboxamide]	44.7 nM
CC1(N2CCC(c3cc4cc(NC(=O)C5CC56CCOC6)ncc4cc3Cl)CC2)COCC1F (single isomer, unassigned) [Ex-6.6, (R or S)-N-(7-chloro-6-(1-((3R,4R or 3S,4S)-4-fluoro-3-methyltetrahydrofuran-3-yl)piperidin-4-yl)isoquinolin-3-yl)-5-oxaspiro [2.4] heptane-1-carboxamide]	1.17 nM
O=C(Nc1cc2cc(C3CCN(C4COC4)CC3)c(Cl)cc2cn1)[C@@H]1C[C@@H](O)[C@H](F)C1 [Ex-1.12, (1R,3R,4R)-N-(7-chloro-6-(1-(oxetan-3-yl)piperidin-4-yl)isoquinolin-3-yl)-3-fluoro-4-hydroxycyclopentane-1-carboxamide]	9.33 nM
CC1(N2CCC(c3cc4cc(NC(=O)C5C6COCC65)ncc4cc3Cl)CC2)COCC1O (stereo not drawn) [Ex-2.15]	0.214 nM
CC1(C)CC(C(=O)Nc2cc3cc(C4CCN(C5(C)COCC5O)CC4)c(Cl)cc3cn2)CO1 (stereo not drawn) [Ex-2.30]	0.126 nM
CN1CCC(C(=O)Nc2cc3cc(C4CCN(C5(C)COCC5O)CC4)c(Cl)cc3cn2)CC1 (single isomer, unassigned) [Ex-1.19, N-(7-chloro-6-(1-((3R,4R or 3S,4S)-4-hydroxy-3-methyltetrahydrofuran-3-yl)piperidin-4-yl)isoquinolin-3-yl)-1-methylpiperidine-4-carboxamide]	0.38 nM
N#CC1(c2cc3cc(NC(=O)C4CC4)ncc3cc2F)CC12CC2 (single isomer, unassigned) [Ex-18.10, (R or S)-N-(6-(1-cyanospiro[2.2]pentan-1-yl)-7-fluoroisoquinolin-3-yl)cyclopropanecarboxamide]	12.6 nM
Cc1cc2cnc(NC(=O)C3CC3C(C)(C)F)cc2cc1C1CCN(C2(C)COCC2O)CC1 (single isomer, unassigned) [Ex-15.6, 2-(2-fluoropropan-2-yl)-N-(6-(1-(4-hydroxy-3-methyltetrahydrofuran-3-yl)piperidin-4-yl)-7-methylisoquinolin-3-yl)cyclopropane-1-carboxamide]	0.501 nM
CC1(N2CCC(c3cc4cc(NC(=O)C5C6COCC65)ncc4cc3Cl)CC2)CCOC1 (single isomer, unassigned) [Ex-6.12, N-(7-chloro-6-(1-(3-methyltetrahydrofuran-3-yl)piperidin-4-yl)isoquinolin-3-yl)-3-oxabicyclo[3.1.0]hexane-6-carboxamide]	8.13 nM
Cc1cc2cnc(NC(=O)C3CC3c3ccccn3)cc2cc1C1CCN(C2(C)COCC2F)CC1 (single isomer, unassigned) [Ex-13.1, (1R,2R or 1S,2S)-N-(6-(1-((3R,4R or 3S,4S)-4-fluoro-3-methyltetrahydrofuran-3-yl)piperidin-4-yl)-7-methylisoquinolin-3-yl)-2-(pyridin-2-yl)cyclopropane-1-carboxamide]	2.51 nM
CC1(N2CCC(c3cc4cc(NC(=O)C5(Cn6ccnc6)CC5)ncc4cc3Cl)CC2)COCC1O (stereo not drawn) [Ex-3.3]	3.31 nM
CC1C(C(=O)Nc2cc3cc(C4CCN(C5COC5)CC4)c(Cl)cc3cn2)C1(F)F (racemic) [Ex-1.6, Rac-N-(7-chloro-6-(1-(oxetan-3-yl)piperidin-4-yl)isoquinolin-3-yl)-2,2-difluoro-3-methylcyclopropane-1-carboxamide]	1.86 nM
CCC1C(C(=O)Nc2cc3cc(C(C)CC#N)c(Cl)cc3cn2)C1c1cnn(C)c1 (single isomer, unassigned) [Ex-9.16, N-(7-chloro-6-(1-cyanopropan-2-yl)isoquinolin-3-yl)-2-ethyl-3-(1-methyl-1H-pyrazol-4-yl)cyclopropane-1-carboxamide]	1.82 nM
CC1(N2CCC(c3cc4cc(NC(=O)C5CC56CC6)ncc4cc3Cl)CC2)COCC1O (single isomer, unassigned) [Ex-4.5, N-(7-chloro-6-(1-(4-hydroxy-3-methyltetrahydrofuran-3-yl)piperidin-4-yl)isoquinolin-3-yl)spiro[2.2]pentane-1-carboxamide]	0.0813 nM
N#CC1(c2ccc3cnc(NC(=O)C4CCN(CC(F)(F)F)C4)cc3c2)CC12CC2 (stereo not drawn) [Ex-2.44]	39.8 nM

Structure (SMILES)	IC50
CC1(N2CCC(c3cc4cc(NC(=O)C5CC5c5ccco5)ncc4cc3Cl)CC2)COCC1O (single isomer, unassigned) [Ex-4.65, N-(7-chloro-6-(1-(4-hydroxy-3-methyltetrahydrofuran-3-yl)piperidin-4-yl)isoquinolin-3-yl)-2-(furan-2-yl)cyclopropane-1-carboxamide]	0.708 nM
CC1(C)CC(C(=O)Nc2cc3cc(C4CCN(C5(C)CCOC5)CC4)c(Cl)cc3cn2)CCO1 (single isomer, unassigned) [Ex-6.44, N-(7-chloro-6-(1-(3-methyltetrahydrofuran-3-yl)piperidin-4-yl)isoquinolin-3-yl)-2,2-dimethyltetrahydro-2H-pyran-4-carboxamide]	5.37 nM
CC(C)(O)c1ccc(CC(=O)Nc2cc3cc(C4(C#N)CC45CC5)ccc3cn2)cc1 (single isomer, unassigned) [Ex-1.44, (R or S)-N-(6-(1-cyanospiro[2.2]pentan-1-yl)isoquinolin-3-yl)-2-(4-(2-hydroxypropan-2-yl)phenyl)acetamide]	22.9 nM
N#CC1(c2ccc3cnc(NC(=O)C4CC45CC5)cc3c2)CC12CC2 (single isomer, unassigned) [Ex-2.2]	0.398 nM
O=C(Nc1cc2cc(C3CCN(C4COC4)CC3)c(Cl)cc2cn1)C1CC12CCC2 (racemic) [Ex-1.14, Rac-N-(7-chloro-6-(1-(oxetan-3-yl)piperidin-4-yl)isoquinolin-3-yl)spiro[2.3]hexane-1-carboxamide]	1.35 nM
CC1(C)CC1(C#N)c1ccc2cnc(NC(=O)C3CC3)cc2c1 (single isomer, unassigned) [Ex-18.4, (R or S)-N-(6-(1-cyano-2,2-dimethylcyclopropyl)isoquinolin-3-yl)cyclopropanecarboxamide]	61.7 nM
CCOC1CC2(C1)CC2C(=O)Nc1cc2cc(C3CCN(C4(C)COCC4O)CC3)c(Cl)cc2cn1 (single isomer, unassigned) [Ex-4.30, N-(7-chloro-6-(1-(4-hydroxy-3-methyltetrahydrofuran-3-yl)piperidin-4-yl)isoquinolin-3-yl)-5-ethoxyspiro[2.3]hexane-1-carboxamide]	3.02 nM
O=C(Nc1cc2cc(C3CCN(C4COC4)CC3)c(Cl)cc2cn1)C1CC(OC(F)F)C1 (single isomer, unassigned) [Ex-2.4]	14.1 nM
Cn1cc(C2CC2C(=O)Nc2cc3cc(C4(C#N)CC45CC5)ccc3cn2)cn1 (single isomer, unassigned) [Ex-1.23, (1R,2R or 1S,2S)-N-(6-((R or S)-1-cyanospiro[2.2]pentan-1-yl)isoquinolin-3-yl)-2-(1-methyl-1H-pyrazol-4-yl)cyclopropane-1-carboxamide]	1.58 nM
Cn1ccc(C2CC2C(=O)Nc2cc3cc(C4CCN(C5(C)COCC5F)CC4)c(Cl)cc3cn2)n1 (stereo not drawn) [Ex-2.84]	0.0813 nM
Cc1ccc(C2CC2C(=O)Nc2cc3cc(C4CCN(C5(C)COCC5O)CC4)c(Cl)cc3cn2)s1 (single isomer, unassigned) [Ex-4.58, N-(7-chloro-6-(1-(4-hydroxy-3-methyltetrahydrofuran-3-yl)piperidin-4-yl)isoquinolin-3-yl)-2-(5-methylthiophen-2-yl)cyclopropane-1-carboxamide]	1.51 nM
N#CC1(c2ccc3cnc(NC(=O)C4CCC4)cc3c2)CC12CC2 (single isomer, unassigned) [Ex-1.15, (R or S)-N-(6-(1-cyanospiro[2.2]pentan-1-yl)isoquinolin-3-yl)cyclobutanecarboxamide]	3.24 nM
CCC1C(C(=O)Nc2cc3cc(C4CC45CC5)c(Cl)cc3cn2)C1c1cnn(C)c1 (stereo not drawn) [Ex-2.99]	117 nM
N#CC1(c2ccc3cnc(NC(=O)C4CC(OC(F)F)C4)cc3c2)CC12CC2 (single isomer, unassigned) [Ex-2.5]	9.77 nM
O=C(C[C@@H](O)C(F)(F)F)Nc1cc2cc(C3CCN(C4COC4)CC3)c(Cl)cc2cn1 [Ex-1.35, (R)-N-(7-chloro-6-(1-(oxetan-3-yl)piperidin-4-yl)isoquinolin-3-yl)-4,4,4-trifluoro-3-hydroxybutanamide]	26.3 nM
CC1CC1C(=O)Nc1cc2cc(C3CCN(C4COC4)CC3)c(Cl)cc2cn1 (single isomer, unassigned) [Ex-9.4, N-(7-chloro-6-(1-(oxetan-3-yl)piperidin-4-yl)isoquinolin-3-yl)-2-methylcyclopropane-1-carboxamide]	5.75 nM
CC1(N2CCC(c3cc4cc(NC(=O)C5CC56CCOCC6)ncc4cc3Cl)CC2)COC(C2CC2)C1 (single isomer, unassigned) [Ex-6.16, N-(7-chloro-6-(1-(5-cyclopropyl-3-methyltetrahydrofuran-3-yl)piperidin-4-yl)isoquinolin-3-yl)-6-oxaspiro[2.5]octane-1-carboxamide]	0.214 nM
